Source: US20180116849A1, “SYSTEMS AND METHODS FOR DETERMINING FAILURE OF INTRAGASTRIC DEVICES” (Obalon Therapeutics, Inc., priority 2015, published 2018)
Entries after “also recorded” stand apart in the source; their conditions may differ. Structures can show the parent of a compound that is named as a salt.

Key:
[1] = Colour, fluorescence or emission of the dye; type: physicochemical; conditions: dyes identified as indicator for balloon rupture
Procedure: Experiments were conducted to identify appropriate dyes that may be incorporated into their gastric balloon device to function as an indicator for balloon rupture. The characteristics of the dyes considered for selection included the following: acceptable toxicology profile, acceptable solubility, intensely absorbing (high color intensity), stable in the gastric environment, and stable during excretion so as to be visually identified by the patient or a caregiver.

[2] = system: mice; conditions: The Merck Index; cited from earlier work
[3] = system: rat; conditions: cited from earlier work
[4] = cited from earlier work; for Solubility in water: The Merck Index
[5] = after the consumption of asparagus; cited from earlier work
[6] = cited from earlier work; for Side-effect of turning urine a color: drugs that may be a source of false positives for balloon leakage; for Urine color produced: humans / patients exposed to the dye
[7] = Tables 4 and 5; cited from earlier work
[8] = The Merck Index; cited from earlier work
[9] = Meng et al. 2013, cited from earlier work
[10] = Tables 4 and 5; cited from earlier work; remark: listed apart in the source
[11] = system: patients; conditions: The Merck Index; cited from earlier work

Compound: O=C(O)C1=C/C(=C/C=[N+]2/c3cc(O)c(OC4OC(CO)[C@@H](O)C(O)C4O)cc3CC2C(=O)[O-])CC(C(=O)O)N1 (stereo in doubt) [betanin]
- Emission colour of dye identified as suitable [1]: red emission

Compound: CN(C)CCC=C1c2ccccc2CCc2ccccc21 [Amitriptyline Hydrochloride, reference compound]
- LD50 (mice) [2]: 350 mg/kg
- LD50 (rats) ([3]; rats, The Merck Index): 380 mg/kg
- Solubility in chloroform (in words) ([4]; chloroform, salt): Salt is freely soluble
- Solubility in water (in words) ([4]; water): Salt is freely soluble

Compound: O=C(O)C1CSSC1 [Asparagusic Acid]
- Urine odor [5]: characteristic odor to urine

Compound: Cc1cc2nc3c(=O)[nH]c(=O)nc-3n(C[C@H](O)[C@H](O)[C@H](O)CO)c2cc1C [B vitamins (e.g. Riboflavin), Riboflavin]
- Solubility ([4]; water): Solubility: 1 g in 3 L g in 3 L water

Compound: COc1cccc2c1C(=O)c1c(O)c3c(c(O)c1C2=O)C[C@@](O)(C(C)=O)C[C@@H]3O[C@H]1C[C@H](N)[C@H](O)[C@H](C)O1 [Daunorubicin]
- Side-effect of turning urine a color [6]: red

Compound: CCN(Cc1cccc(S(=O)(=O)O)c1)c1ccc(C(=C2C=CC(=[N+](CC)Cc3cccc(S(=O)(=O)O)c3)C=C2)c2ccc(O)cc2S(=O)(=O)[O-])cc1 [Fast Green FCF]
- Emission colour of dye identified as suitable [1]: green emission
- LD50 (rat) ([3]; rat, in vivo): LD50 (rat) > 2 g/kg;
- Solubility in alcohols (in words) ([4]; alcohols): Very soluble in water,
- Solubility in other organic solvents (in words) ([4]; other organic solvents): alcohols, insoluble in other
- Solubility in water (in words) ([4]; water): Very soluble in water,
- Toxicology (in words) [7]: may cause eye injury

Compound: O=C1/C(=C2\Nc3ccc(S(=O)(=O)[O-])cc3C2=O)Nc2ccc(S(=O)(=O)[O-])cc21.[Na+].[Na+] [Indigo carmine]
- pH indicator-blue at pH [8]: pH indicator-blue at pH < 11
- Emission colour of dye identified as suitable [1]: blue emission
- LD50 (rat, oral) ([3]; rat, oral, Baker MSDS sheet): oral) = 2 g/kg (Baker
- Solubility in water [4]: 1.0 g per 100 mL of water

Compound: CN(C)c1ccc2c(c1)Sc1cc(N(C)C)ccc1N2 [Leukomethylene blue]
- Excretion in urine ([9]; urine): excreted mostly unaltered

Compound: Cc1cc2nc3[nH]c(=O)[nH]c(=O)c3nc2cc1C [Lumichrome]
- Colour / fluorescence (Chemical Properties) [10]: Blue fluorescence
- Urine color produced [6]: blue-green urine
- Solubility (in words, solvent not stated) [4]: poor solubility
- Solubility in hot water (in words) ([4]; hot water): Sparingly soluble in hot water
- Toxicology (in words) [7]: None

Compound: Cc1cc2nc3c(=O)[nH]c(=O)nc-3n(C)c2cc1C [Lumiflavine]
- Colour / fluorescence (Chemical Properties) [10]: Green fluorescence
- Urine color produced [6]: blue-green urine
- Solubility (in words, solvent not stated) [4]: poor solubility
- Solubility in water (in words) ([4]; water): Very sparingly soluble in
- Toxicology (in words) [7]: None

Compound: COc1ccccc1OCC(O)COC(N)=O (stereo not drawn) [Methocarbamol, reference compound]
- Toxicology: tolerability in patients [11]: Generally well-
- Water soluble ([4]; @ 20 ° C.): Water soluble 2.5 g/ g/100 mL

Compound: COc1ccc2[nH]c([S+]([O-])Cc3ncc(C)c(OC)c3C)nc2c1 (stereo not drawn) [Omeprazole]
- Side-effect of turning urine a color [6]: blue green

Compound: O=C(O)c1cc(O)c2c(c1)[C@H]([C@H]1c3cc(C(=O)O)cc(O)c3C(=O)c3c(O[C@@H]4O[C@H](CO)[C@@H](O)[C@H](O)[C@H]4O)cccc31)c1cccc(O[C@@H]3O[C@H](CO)[C@@H](O)[C@H](O)[C@H]3O)c1C2=O [Sennoside A]
- Solubility in water (in words) ([4]; water): insoluble in water.

Compound: O=C(O)c1cc(O)c2c(c1)[C@@H]([C@H]1c3cc(C(=O)O)cc(O)c3C(=O)c3c(O[C@@H]4O[C@H](CO)[C@@H](O)[C@H](O)[C@H]4O)cccc31)c1cccc(O[C@@H]3O[C@H](CO)[C@@H](O)[C@H](O)[C@H]3O)c1C2=O [Sennoside B]
- Solubility in water compared with Sennoside A ([4]; water, Merck): Sennoside B is more

Compound: Nc1nc(N)c2nc(-c3ccccc3)c(N)nc2n1 [Triamterene, reference compound]
- Emission colour of dye identified as suitable [1]: blue emission
- Toxicology: tolerability in patients [11]: Generally well-
- Solubility in water [4]: 1 part soluble in 1000 part soluble in 1000 parts water

Compound: CCC(=O)O[C@@H](O[P@](=O)(CCCCc1ccccc1)CC(=O)N1C[C@H](C2CCCCC2)C[C@H]1C(=O)O)C(C)C [fosinopril]
- Side-effect of turning urine a color [6]: blue green

Compound: CN(C)c1ccc2nc3ccc(N(C)C)cc3[s+]c2c1.[Cl-] [methylene blue]
- Conversion on passage through the gastrointestinal tract ([9]; gastrointestinal tract): reduced to leukomethylene blue
- Urine color produced [6]: blue-green discoloration of their urine; also recorded: blue-green color

Compound: Nc1ccc(/N=N/c2ccccc2)c(N)n1 [phenazopyridine]
- Side-effect of turning urine a color [6]: red

Compound: CC[C@H](C)C(=O)O[C@H]1C[C@H](O)C=C2C=C[C@H](C)[C@H](CC[C@@H](O)C[C@@H](O)CC(=O)O)[C@H]21 [pravastatin]
- Side-effect of turning urine a color [6]: blue green

Compound: CC(C)c1cccc(C(C)C)c1O [propofol]
- Side-effect of turning urine a color [6]: green colored urine

Compound: CO[C@H]1/C=C/O[C@@]2(C)Oc3c(C)c(O)c4c(O)c(c(/C=N/N5CCN(C)CC5)c(O)c4c3C2=O)NC(=O)/C(C)=C\C=C\[C@H](C)[C@H](O)[C@@H](C)[C@@H](O)[C@@H](C)[C@H](OC(C)=O)[C@@H]1C [rifampin]
- Side-effect of turning urine a color [6]: red

Compound: Betalain [Betalain (including betanin)]
- Colour / fluorescence (Chemical Properties) [10]: Colored Red
